Values quoted from earlier work in patent US20240009325A1 (PriZm, LLC, priority 2022, published 2024).
“Also recorded” adds a separate entry of the source.

Experiments:
mice deficient in MCT8 = details: cited from earlier work; for cell entry in absence of MCT8: Mct8 deficient mice
MCT8 deficient children = details: cited from earlier work; for high blood / serum T3 / neuropsychomotor deficit / neurological symptoms: MCT8 deficient patients
animal models = details: mice not neurologically affected; cited from earlier work
D1 = details: cited from earlier work

O=C(O)CCc1cc(I)c(Oc2ccc(O)cc2)c(I)c1 [DITPA, 3,5-diiodothyropropionic acid]
suppressive effect on TSH (mice deficient in MCT8; MCT8 deficient vs normal mice): equal suppressive effect
cell entry in absence of MCT8 (mice deficient in MCT8): enter cells independent of MCT8
hypermetabolism and nutrition (MCT8 deficient children; 4 MCT8 deficient children, compassionate basis): ameliorating
high blood / serum T3 (MCT8 deficient children): reduction and normalization; also recorded: reduced
neuropsychomotor deficit / neurological symptoms (MCT8 deficient children): not the neuropsychomotor deficit; also recorded: no evidence for improvement
peripheral and central abnormalities (animal models): able to restore some

Cc1cc(OCC(=O)O)cc(C)c1Cc1ccc(O)c(C(C)C)c1 [Sobetirome]
peripheral and central abnormalities (animal models): able to restore some

O=C(O)Cc1cc(I)c(Oc2cc(I)c(O)c(I)c2)c(I)c1 [TETRAC]
peripheral and central abnormalities (animal models): able to restore some

O=C(O)Cc1cc(I)c(Oc2ccc(O)c(I)c2)c(I)c1 [TRIAC, triiodothyroacetic acid]
cell entry in absence of MCT8 (mice deficient in MCT8): enter cells independent of MCT8
high blood / serum T3 (MCT8 deficient children): reduced
neuropsychomotor deficit / neurological symptoms (MCT8 deficient children): no evidence for improvement
T4 serum levels (MCT8 deficient children; clinical trial, Groeneweg et al. 2019): significantly reduce
peripheral and central abnormalities (animal models): able to restore some
D1 (D1): increases
